Experimental data from patent publication US12448378B2, “Fluoropyrrolopyridine compound and application thereof” (Wuxi Life Fountain Biotech Co., Ltd, priority 2020, dated 2025).
Each block holds one molecule with its values, some of them ahead of it.

Tests used:
[1] = target: human ATR kinase (ATR/ATRIP (h)) (Homo sapiens (Human), UniProt Q13535); experiment: ATR enzyme activity in vitro (HTRF kinase assay); type: biochemical; settings: 10 μM ATP, GST-cMyc-p53 substrate
Procedure: The inhibitory activity of the test compounds against human ATR kinase was evaluated by measuring IC50 value.
ATR/ATRIP (h) was incubated in detection buffer containing 50 nM GST-cMyc-p53 and Mg/ATP (10 μM). The reaction was initiated by adding Mg/ATP mixture. After incubation at room temperature for 30 minutes, the reaction was terminated by adding a termination solution containing EDTA. Finally, a detection buffer containing d^2-labeled anti-GST monoclonal antibody and europium-labeled anti-phospho-Ser15 antibody against phosphorylated p53 were added. Plates were then read in time-resolved fluorescence mode for homogeneous time resolution.
The fluorescence (HTRF) signal was determined according to the formula HTRF=10000×(Em665 nm/Em620 nm).

tumor cell line LoVo = experiment: In vitro LoVo cell proliferation inhibition (CellTiter-Glo); type: cell-based; settings: Homo sapiens, LoVo cells
Procedure: In this experiment, the inhibitory effect of the compounds on cell proliferation was studied by detecting the effect of the compounds on the in vitro cell activity in the tumor cell line LoVo.
CellTiter-Glo Luminescent Cell Viability Assay
The following steps were carried out according to the instructions of PromegaCellTiter-Glo luminescent cell viability assay kit (Promega-G7573).
(1) CellTiter-Glo buffer was thawed and placed at room temperature.
(2) CellTiter-Glo substrate was placed at room temperature.
(3) CellTiter-Glo working solution was prepared by adding CellTiter-Glo buffer to a vial of CellTiter-Glo substrate to dissolve the substrate.
(4) Slowly vortexed to fully dissolve. […]
(8) The culture plate was left at room temperature for 10 minutes to stabilize the luminescence signal.
(9) The luminescence signal was detected on the SpectraMax i3x of Molecular Devices plate reader.
The Inhibition rate (IR) of the test compound was calculated using the following formula: IR (%)=(1−(RLU compound−RLU blank control)/(RLU solvent control−RLU blank control))*100%. The inhibition rates of different concentrations of the compounds were calculated in Excel, and then the inhibition curves were made by GraphPad Prism software and the related parameters were calculated, including the minimum inhibition rate, the maximum inhibition rate and IC50.

[2] = In vivo pharmacokinetics in female Balb/c Nude mice
Procedure: Test sample: On the basis of the above experiments, compound 1 was selected for further experiments.
Experimental methods: The purpose of this study was to determine the pharmacokinetic parameters of compound 1 and to calculate its oral bioavailability in female Balb/c Nude mice. This project used 4 female Balb/c Nude mice. Two mice were administered intravenously at a dose of 1 mg/kg, and plasma samples were collected at 0 hours (before administration) and 0.0833, 0.25, 0.5, 1, 2, 4, 6, 8, 24 hours after administration. The other two mice were administered orally by gavage at a dose of 10 mg/kg or 25 mg/kg, and plasma samples were collected at 0 hours (before administration) and 0.25, 0.5, 1, 2, 4, 6, 8, 24 hours after administration. The collected samples were then analyzed by LC/MS/MS and data were collected. The collected analysis data were used to calculate the relevant pharmacokinetic parameters by Phoenix WinNonlin 6.2.1 software.

[3] = test system: human gastric cancer SNU-601 xenograft tumor; experiment: In vivo efficacy, human gastric cancer cell SNU-601 CDX xenograft model; set-up: species or system mice; settings: for tumor volume: day 21, CB17 SCID mice
Description: The main objective of this study was to study the antitumor efficacy of the test sample on the xenograft tumor model of human gastric cancer cell SNU-601.
• Species: mice • Strain: CB17 SCID mice • Supplier: Huafukang Laboratory Animal Technology Co., Ltd. • Week age: 6-8 weeks old • Gender: female 2. Cell Culture
Human gastric cancer SNU-601 cells, sourced from KCLB (Cat. No.: 00601), were maintained and passaged by HD Biosciences (Shanghai) Co., Ltd. In vitro culture conditions were RPMI 1640 culture medium (containing 300 mg/L L-glutamine) with 10% fetal bovine serum, 25 mM HEPES and 25 mM sodium bicarbonate, incubated in 5% CO2 incubator at 37° C., and passaged for two or three times a week. When the number of cells reached the requirement, the cells were collected and counted. 0.2 mL (5×10^6 cells) SNU-601 cells (resuspended in DPBS:Matrigel=1:1) were subcutaneously inoculated into the right back of each mouse, and the group administration was started when the average tumor volume reached 147.61 mm^3.
Administration dosage: Compound 1 was orally administered at three doses of 15 mg/kg (administered for 3 days without administration for 4 days), 10 mg/kg (administered for 3 days without administration for 4 days) and 5 mg/kg (continuous administration).
Tumor diameters were measured with vernier calipers three times a week. The tumor volume was calculated by the formula: V=0.5×a×b^2, wherein a and b referred to the long and short diameter of the tumor, respectively. The calculation formula of relative tumor volume (RTV) was: RTV (%)=(Vt/V1)×100; the calculation formula of animal body weight change (BWC) was: BWC (%)=(BWt−BW1)/BW1×100, wherein V1 and BW1 referred to the tumor volume and body weight of a certain animal on the day of group administration, and Vt and BWt referred to the tumor volume and body weight of a certain animal at a certain measurement.
The antitumor efficacy of the compounds was evaluated by TGI (%) or relative tumor proliferation rate T/C (%). Relative tumor proliferation rate T/C (%)=TRTV/CRTV×100 (TRTV: mean RTV of the treatment group; CRTV: mean RTV of the negative control group). The relative tumor volume (RTV) was calculated according to the results of tumor measurement, and the calculation formula was RTV=Vt/V1, wherein V1 was the tumor volume measured at the time of group administration (that is, D1), Vt was the tumor volume at a certain measurement, and the data of TRTV and CRTV were taken on the same day.
TGI (%) reflected the tumor growth inhibition rate. TGI (%)=[(1−(average tumor volume at the end of administration of a certain treatment group−average tumor volume at the beginning of administration of this treatment group))/(average tumor volume at the end of treatment in the solvent control group−average tumor volume at the beginning of treatment in the solvent control group)]×100.
After the experiment, the tumor weight would be detected, and the percentage of Tweight/Cweight would be calculated. Tweight and Cweight referred to the tumor weight of the administration group and the solvent control group, respectively.
In this experiment, the xenograft tumor model of human gastric cancer cell SNU601 was used to evaluate the in vivo efficacy of the test compounds. During the whole administration period, no animals were discontinued due to body weight loss of more than 10%, and the efficacy test was terminated on the 21st day after administration.

[4] = mouse, plasma, intravenous 1 mg/kg
[5] = whole experimental period, compound 1 administration group

Chain of human ATR kinase (ATR/ATRIP (h)) (Q13535 whole entry): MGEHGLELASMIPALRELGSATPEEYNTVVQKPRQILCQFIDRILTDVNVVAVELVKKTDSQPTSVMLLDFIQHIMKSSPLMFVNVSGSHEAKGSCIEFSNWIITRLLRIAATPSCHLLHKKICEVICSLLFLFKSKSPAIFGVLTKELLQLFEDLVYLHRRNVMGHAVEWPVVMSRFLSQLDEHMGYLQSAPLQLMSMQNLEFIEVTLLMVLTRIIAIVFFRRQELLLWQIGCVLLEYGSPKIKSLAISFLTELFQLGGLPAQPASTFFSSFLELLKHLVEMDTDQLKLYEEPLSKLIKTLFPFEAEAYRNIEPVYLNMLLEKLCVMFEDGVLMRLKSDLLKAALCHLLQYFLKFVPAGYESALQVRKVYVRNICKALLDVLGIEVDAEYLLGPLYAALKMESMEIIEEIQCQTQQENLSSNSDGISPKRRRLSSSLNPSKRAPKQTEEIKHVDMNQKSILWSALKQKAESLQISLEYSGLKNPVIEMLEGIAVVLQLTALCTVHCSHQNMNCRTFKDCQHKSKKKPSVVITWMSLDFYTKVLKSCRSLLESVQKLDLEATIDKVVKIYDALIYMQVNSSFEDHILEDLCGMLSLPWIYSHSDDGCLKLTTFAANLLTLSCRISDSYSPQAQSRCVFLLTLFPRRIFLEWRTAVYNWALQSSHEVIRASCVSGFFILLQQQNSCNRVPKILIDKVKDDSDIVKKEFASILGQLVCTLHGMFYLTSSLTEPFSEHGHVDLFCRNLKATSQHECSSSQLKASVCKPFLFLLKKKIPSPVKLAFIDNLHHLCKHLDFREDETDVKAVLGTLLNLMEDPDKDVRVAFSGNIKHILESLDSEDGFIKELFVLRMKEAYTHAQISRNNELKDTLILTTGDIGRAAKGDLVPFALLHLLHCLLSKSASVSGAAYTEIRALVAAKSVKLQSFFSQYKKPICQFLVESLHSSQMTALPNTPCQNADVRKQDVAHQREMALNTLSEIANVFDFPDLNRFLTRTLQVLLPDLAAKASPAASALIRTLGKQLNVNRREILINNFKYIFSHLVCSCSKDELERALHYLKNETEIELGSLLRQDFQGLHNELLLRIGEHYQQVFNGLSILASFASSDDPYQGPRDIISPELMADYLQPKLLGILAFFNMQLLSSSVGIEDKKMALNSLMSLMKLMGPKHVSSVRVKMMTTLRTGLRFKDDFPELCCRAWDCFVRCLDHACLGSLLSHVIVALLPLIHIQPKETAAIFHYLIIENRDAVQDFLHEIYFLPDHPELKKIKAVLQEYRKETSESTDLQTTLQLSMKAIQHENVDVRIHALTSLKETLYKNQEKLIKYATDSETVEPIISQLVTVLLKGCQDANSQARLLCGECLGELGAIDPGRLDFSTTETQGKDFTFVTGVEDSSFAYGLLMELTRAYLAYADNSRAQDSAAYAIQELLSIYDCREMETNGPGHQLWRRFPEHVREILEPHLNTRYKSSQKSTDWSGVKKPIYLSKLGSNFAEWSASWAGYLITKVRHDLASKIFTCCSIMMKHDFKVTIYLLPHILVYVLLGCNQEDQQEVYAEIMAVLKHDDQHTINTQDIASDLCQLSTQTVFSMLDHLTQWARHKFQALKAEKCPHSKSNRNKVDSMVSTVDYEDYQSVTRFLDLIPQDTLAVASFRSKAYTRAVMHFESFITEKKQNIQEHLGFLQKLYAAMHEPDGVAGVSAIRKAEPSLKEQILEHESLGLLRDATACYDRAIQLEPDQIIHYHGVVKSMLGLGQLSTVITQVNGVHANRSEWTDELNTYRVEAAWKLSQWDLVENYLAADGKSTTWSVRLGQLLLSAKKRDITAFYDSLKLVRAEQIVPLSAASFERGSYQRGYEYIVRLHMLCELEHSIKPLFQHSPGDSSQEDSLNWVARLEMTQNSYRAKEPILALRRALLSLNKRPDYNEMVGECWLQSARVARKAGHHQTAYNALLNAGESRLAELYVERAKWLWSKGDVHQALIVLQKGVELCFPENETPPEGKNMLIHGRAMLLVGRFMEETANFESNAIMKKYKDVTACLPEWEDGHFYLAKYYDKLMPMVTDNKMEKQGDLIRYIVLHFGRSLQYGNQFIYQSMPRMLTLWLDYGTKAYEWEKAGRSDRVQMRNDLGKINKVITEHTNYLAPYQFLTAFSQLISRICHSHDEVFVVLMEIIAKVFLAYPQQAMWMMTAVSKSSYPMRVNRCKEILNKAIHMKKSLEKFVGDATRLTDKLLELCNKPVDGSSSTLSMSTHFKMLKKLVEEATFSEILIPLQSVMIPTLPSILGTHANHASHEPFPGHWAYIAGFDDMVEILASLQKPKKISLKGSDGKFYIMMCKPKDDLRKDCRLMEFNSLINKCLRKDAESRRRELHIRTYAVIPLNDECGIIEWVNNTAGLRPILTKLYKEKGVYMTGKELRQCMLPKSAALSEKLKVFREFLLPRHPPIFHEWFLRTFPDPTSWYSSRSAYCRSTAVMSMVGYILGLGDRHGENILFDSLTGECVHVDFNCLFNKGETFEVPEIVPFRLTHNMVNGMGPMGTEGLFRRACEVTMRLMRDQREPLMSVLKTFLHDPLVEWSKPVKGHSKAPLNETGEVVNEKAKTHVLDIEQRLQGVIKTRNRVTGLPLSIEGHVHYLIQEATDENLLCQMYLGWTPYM
Chain of human ATR kinase (ATR/ATRIP (h)) (Q8WXE1 whole entry partner): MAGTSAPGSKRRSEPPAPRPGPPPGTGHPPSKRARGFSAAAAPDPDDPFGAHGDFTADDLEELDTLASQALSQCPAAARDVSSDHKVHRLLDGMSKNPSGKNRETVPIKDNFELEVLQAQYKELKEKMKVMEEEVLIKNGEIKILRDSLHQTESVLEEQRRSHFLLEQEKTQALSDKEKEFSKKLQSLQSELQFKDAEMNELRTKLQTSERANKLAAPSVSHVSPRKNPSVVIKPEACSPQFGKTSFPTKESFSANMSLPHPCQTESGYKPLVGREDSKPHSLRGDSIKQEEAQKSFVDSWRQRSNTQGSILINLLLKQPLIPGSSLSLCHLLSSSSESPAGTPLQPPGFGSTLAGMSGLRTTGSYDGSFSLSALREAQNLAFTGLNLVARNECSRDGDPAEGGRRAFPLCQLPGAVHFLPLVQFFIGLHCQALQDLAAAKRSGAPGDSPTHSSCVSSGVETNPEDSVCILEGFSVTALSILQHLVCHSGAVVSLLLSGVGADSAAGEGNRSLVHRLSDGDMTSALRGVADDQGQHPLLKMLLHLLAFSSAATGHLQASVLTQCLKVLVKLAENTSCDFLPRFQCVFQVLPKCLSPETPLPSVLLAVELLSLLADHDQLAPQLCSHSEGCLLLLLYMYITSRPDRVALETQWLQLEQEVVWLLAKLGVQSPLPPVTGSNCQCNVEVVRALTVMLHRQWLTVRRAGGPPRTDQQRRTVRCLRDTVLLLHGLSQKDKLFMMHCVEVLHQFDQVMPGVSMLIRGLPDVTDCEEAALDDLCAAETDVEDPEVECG

IC50 [1]: 0.182 µM
Compound: COc1cc(C)c(-c2cc(-c3c(F)ncc4[nH]ccc34)nc(N3CCOC[C@H]3C)c2)cn1 [Compound 10]

IC50 [1]: 0.057 µM
Compound: Cc1cnn(C)c1-c1cc(-c2c(F)ncc3[nH]ccc23)nc(N2CCOC[C@H]2C)c1 [Compound 14]

IC50 [1]: 0.033 µM | IC50 (tumor cell line LoVo): 0.102 µM | C0 ([2]; mouse, intravenous 1 mg/kg, plasma): 2.8 µM | AUC(0-t) [2, 4]: 2.55 µM·h | clearance [2, 4]: 15.8 mL/min/kg | half-life [2, 4]: 1.32 h | Vd ([2]; mouse, plasma, intravenous 1 mg/kg, read-out: Vdss): 1.65 L/kg | AUC(0-t) ([2]; mouse, plasma, oral 10 mg/kg): 23 µM·h | Cmax ([2]; mouse, plasma, oral 10 mg/kg): 9.56 µM | half-life ([2]; mouse, plasma, oral 10 mg/kg): 1.4 h | AUC(0-t) ([2]; mouse, plasma, oral 25 mg/kg): 82 µM·h | Cmax ([2]; mouse, plasma, oral 25 mg/kg): 17.4 µM | half-life ([2]; mouse, plasma, oral 25 mg/kg): 3.8 h | F ([2]; oral 10 mg/kg vs intravenous 1 mg/kg): 91.6% | animal state [3, 5]: had no abnormality
Compound: Cc1nnn(C)c1-c1cc(-c2c(F)ncc3[nH]ccc23)nc(N2CCOC[C@H]2C)c1 [Compound 1]
tumor volume ([3]; oral 5 mg/kg (continuous administration)): 229.99±24.42 mm^3 | tumor inhibition rate TGI ([3]; oral 5 mg/kg (continuous administration), day 21, p<0.01): 88.61% | tumor volume ([3]; oral 10 mg/kg (3 days on, 4 days off)): 136.74±14.46 mm^3 | tumor inhibition rate TGI ([3]; oral 10 mg/kg (3 days on, 4 days off), day 21, P<0.01): 101.08% | tumor volume ([3]; oral 15 mg/kg (3 days on, 4 days off)): 108.74±9.67 mm^3 | tumor inhibition rate TGI ([3]; oral 15 mg/kg (3 days on, 4 days off), day 21, p<0.01): 104.81% | body weight of the animals [3, 5]: did not decrease significantly

IC50 [1]: 0.425 µM
Compound: Cc1ccccc1-c1cc(-c2c(F)ncc3[nH]ccc23)nc(N2CCOC[C@H]2C)c1 [Compound 8]

IC50 [1]: 0.069 µM | IC50 (tumor cell line LoVo): 0.234 µM
Compound: Cc1nnc(C)n1-c1cc(-c2c(F)ncc3[nH]ccc23)nc(N2CCOC[C@H]2C)c1 [Compound 2]

IC50 [1]: 0.031 µM
Compound: Cc1n[nH]c(C)c1-c1cc(-c2c(F)ncc3[nH]ccc23)nc(N2CCOC[C@H]2C)c1 [Compound 9]

IC50 [1]: 0.211 µM
Compound: C[C@@H]1COCCN1c1cc(-c2cnnn2C)cc(-c2c(F)ncc3[nH]ccc23)n1 [Compound 6]

IC50 [1]: 0.078 µM
Compound: Cc1noc(C)c1-c1cc(-c2c(F)ncc3[nH]ccc23)nc(N2CCOC[C@H]2C)c1 [Compound 16]

IC50 [1]: 0.5 µM
Compound: Cc1nn(C)cc1-c1cc(-c2c(F)ncc3[nH]ccc23)nc(N2CCOC[C@H]2C)c1 [Compound 13]

IC50 [1]: 0.204 µM
Compound: C[C@@H]1COCCN1c1cc(-c2ccnn2C)cc(-c2c(F)ncc3[nH]ccc23)n1 [Compound 15]

IC50 [1]: 0.336 µM
Compound: C[C@@H]1COCCN1c1cc(-c2cccn2C)cc(-c2c(F)ncc3[nH]ccc23)n1 [Compound 5]

IC50 [1]: 0.078 µM
Compound: Cc1ncccc1-c1cc(-c2c(F)ncc3[nH]ccc23)nc(N2CCOC[C@H]2C)c1 [Compound 7]
